Measured values published in patent US9944602B2, “Piperidinone herbicides” (E. I. DU PONT DE NEMOURS AND COMPANY, priority 2014, dated 2018).

Assays:
[1] = test system: ducksalad (Heteranthera limosa); assay: Test C flooded paddy test ducksalad; assay type: in vivo; conditions: Table C, Flood, scale 0 to 100
Text: (§1) Plant species in the flooded paddy test consisted of rice (Oryza sativa), sedge, umbrella (small-flower umbrella sedge, Cyperus difformis), ducksalad (Heteranthera limosa), and barnyardgrass (Echinochloa crus-galli) grown to the 2-leaf stage for testing. At time of treatment, test pots were flooded to 3 cm above the soil surface, treated by application of test compounds directly to the paddy water, and then maintained at that water depth for the duration of the test. Treated plants and controls were maintained in a greenhouse for 13 to 15 d, after which time all species were compared to controls and visually evaluated. Plant response ratings, summarized in Table C, are based on a scale of 0 to 100 where 0 is no effect and 100 is complete control. A dash (-) response means no test result.

[2] = test system: barnyardgrass (Echinochloa crus-galli); assay: Test A postemergence barnyardgrass; assay type: in vivo; conditions: Echinochloa crus-galli, post-emergence, 240 h, 0 to 100 scale, 0 is no effect, 100 is complete control, read-out: Plant response rating, Barnyardgrass; for pest or weed control at 125 g/ha: 125 g ai/ha; for pest or weed control at 500 g/ha: 500 g ai/ha
Method in brief: (§2)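 Directed soil spray at planting gives preemergence data; foliar application to one- to two-leaf plants gives postemergence data. Response is visual injury relative to untreated controls about 10 d after treatment, scored 0–100.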

[3] = test system: wheat (Triticum aestivum); assay: Test A postemergence wheat; assay type: in vivo; conditions: Triticum aestivum, post-emergence, 240 h, 0 to 100 scale, 0 is no effect, 100 is complete control, read-out: Plant response rating, Wheat; for plant injury at 125 g/ha: 125 g ai/ha; for plant injury at 500 g/ha: 500 g ai/ha
Method in brief: as §2

[4] = test system: barnyardgrass (Echinochloa crus-galli); assay: Test A preemergence barnyardgrass; assay type: in vivo; conditions: 0 to 100 scale; for Plant response rating, Barnyardgrass: 500 g ai/ha, 0 is no effect, 100 is complete control; for pest or weed control at 125 g/ha: Echinochloa crus-galli, pre-emergence, 240 h, 125 g ai/ha, 0 no effect, 100 complete control, read-out: Barnyardgrass plant response rating
Method in brief: as §2

[5] = test system: wheat (Triticum aestivum); assay: Test A preemergence wheat; assay type: in vivo; conditions: 0 to 100 scale, 0 no effect, 100 complete control
Method in brief: as §2

[6] = test system: sedge, umbrella (small-flower umbrella sedge, Cyperus difformis); assay: Test B flooded paddy test sedge, umbrella; assay type: in vivo; conditions: Cyperus difformis, Table B, Flood, 250 g ai/ha, scale 0 to 100, read-out: Plant response rating
Method in brief: (§3)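 Water-applied paddy treatment: compound dosed into 3 cm flood on 2-leaf plants, read visually versus controls after 13 to 15 d.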

[7] = test system: corn (Zea mays); assay: Test A postemergence corn; assay type: in vivo; conditions: Zea mays, post-emergence, 240 h, 0 to 100 scale, 0 is no effect, 100 is complete control; for Corn plant response rating (crop injury, 0 = no effect, 100 = complete kill) at 125 g/ha: 125 g ai/ha; for Corn plant response rating (crop injury, 0 = no effect, 100 = complete kill) at 500 g/ha: 500 g ai/ha
Method in brief: as §2

[8] = test system: foxtail, giant (giant foxtail, Setaria faberii); assay: Test A postemergence foxtail, giant; assay type: in vivo; conditions: Setaria faberi, post-emergence, 240 h, 0 to 100 scale, 0 is no effect, 100 is complete control, read-out: Plant response rating, Foxtail, Giant; for pest or weed control at 125 g/ha: 125 g ai/ha; for pest or weed control at 500 g/ha: 500 g ai/ha
Method in brief: as §2

[9] = test system: rice (Oryza sativa); assay: Test C flooded paddy test rice; assay type: in vivo; conditions: Table C, Flood, scale 0 to 100
Text: as §1

[10] = test system: rice (Oryza sativa); assay: Test B flooded paddy test rice; assay type: in vivo; conditions: Oryza sativa, Table B, Flood, 250 g ai/ha, scale 0 to 100, read-out: Plant response rating
Method in brief: as §3

[11] = test system: barnyardgrass (Echinochloa crus-galli); assay: Test C flooded paddy test barnyardgrass; assay type: in vivo; conditions: Table C, Flood, scale 0 to 100
Text: as §1

[12] = test system: pigweed (Amaranthus retroflexus); assay: Test A postemergence pigweed; assay type: in vivo; conditions: Amaranthus retroflexus, post-emergence, 240 h, 0 to 100 scale, 0 is no effect, 100 is complete control, read-out: Plant response rating, Pigweed; for pest or weed control at 125 g/ha: 125 g ai/ha; for pest or weed control at 500 g/ha: 500 g ai/ha
Method in brief: as §2

[13] = test system: foxtail, giant (giant foxtail, Setaria faberii); assay: Test A preemergence foxtail, giant; assay type: in vivo; conditions: Setaria faberi, pre-emergence, 240 h, 0 to 100 scale, 0 no effect, 100 complete control, read-out: Foxtail, Giant plant response rating; for pest or weed control at 125 g/ha: 125 g ai/ha; for pest or weed control at 500 g/ha: 500 g ai/ha
Method in brief: as §2

[14] = test system: barnyardgrass (Echinochloa crus-galli); assay: Test B flooded paddy test barnyardgrass; assay type: in vivo; conditions: Echinochloa crus-galli, Table B, Flood, 250 g ai/ha, scale 0 to 100, read-out: Plant response rating
Method in brief: as §3

[15] = test system: ducksalad (Heteranthera limosa); assay: Test B flooded paddy test ducksalad; assay type: in vivo; conditions: Heteranthera limosa, Table B, Flood, 250 g ai/ha, scale 0 to 100, read-out: Plant response rating
Method in brief: as §3

[16] = test system: sedge, umbrella (small-flower umbrella sedge, Cyperus difformis); assay: Test C flooded paddy test sedge, umbrella; assay type: in vivo; conditions: Table C, Flood, scale 0 to 100
Text: as §1

[17] = test system: pigweed (Amaranthus retroflexus); assay: Test A preemergence pigweed; assay type: in vivo; conditions: Amaranthus retroflexus, pre-emergence, 240 h, 0 to 100 scale, 0 no effect, 100 complete control, read-out: Pigweed plant response rating; for pest or weed control at 125 g/ha: 125 g ai/ha; for pest or weed control at 500 g/ha: 500 g ai/ha
Method in brief: as §2

[18] = test system: ryegrass, Italian (Italian ryegrass, Lolium multiflorum); assay: Test A postemergence ryegrass, Italian; assay type: in vivo; conditions: Lolium multiflorum, post-emergence, 240 h, 0 to 100 scale, 0 is no effect, 100 is complete control, read-out: Plant response rating, Ryegrass, Italian
Method in brief: as §2

[19] = test system: galium (catchweed bedstraw, Galium aparine); assay: Test A postemergence galium; assay type: in vivo; conditions: Galium, post-emergence, 240 h, 0 to 100 scale, 0 is no effect, 100 is complete control, read-out: Plant response rating, Galium
Method in brief: as §2

[20] = test system: kochia (Kochia scoparia); assay: Test A preemergence kochia; assay type: in vivo; conditions: Bassia scoparia, pre-emergence, 240 h, 0 to 100 scale, 0 no effect, 100 complete control, read-out: Kochia plant response rating
Method in brief: as §2

[21] = test system: kochia (Kochia scoparia); assay: Test A postemergence kochia; assay type: in vivo; conditions: Bassia scoparia, post-emergence, 240 h, 0 to 100 scale, 0 is no effect, 100 is complete control, read-out: Plant response rating, Kochia
Method in brief: as §2

[22] = test system: ragweed (common ragweed, Ambrosia elatior); assay: Test A preemergence ragweed; assay type: in vivo; conditions: Ambrosia artemisiifolia, pre-emergence, 240 h, 0 to 100 scale, 0 no effect, 100 complete control, read-out: Ragweed plant response rating
Method in brief: as §2

[23] = test system: ryegrass, Italian (Italian ryegrass, Lolium multiflorum); assay: Test A preemergence ryegrass, Italian; assay type: in vivo; conditions: Lolium multiflorum, pre-emergence, 240 h, 0 to 100 scale, 0 no effect, 100 complete control, read-out: Ryegrass, Italian plant response rating
Method in brief: as §2

[24] = test system: ragweed (common ragweed, Ambrosia elatior); assay: Test A postemergence ragweed; assay type: in vivo; conditions: Ambrosia artemisiifolia, post-emergence, 240 h, 0 to 100 scale, 0 is no effect, 100 is complete control, read-out: Plant response rating, Ragweed
Method in brief: as §2

[25] = test system: blackgrass (Alopecurus myosuroides); assay: Test A postemergence blackgrass; assay type: in vivo; conditions: Alopecurus myosuroides, post-emergence, 240 h, 0 to 100 scale, 0 is no effect, 100 is complete control, read-out: Plant response rating, Blackgrass
Method in brief: as §2

O=C1NCCC(c2cccc(C(F)(F)F)c2)C1C(=O)Nc1ccccc1C(F)(F)F (stereo not shown) [Compound 10, 2-oxo-N-[2-(trifluoromethyl)phenyl)-4-[3-(trifluoromethyl)phenyl]-3-piperidinecarboxamide]
Plant response rating ([1]; 1000 g ai/ha): 85
pest or weed control at 125 g/ha [2]: 80%
pest or weed control at 500 g/ha [2]: 90%
plant injury at 125 g/ha [3]: 0%
plant injury at 500 g/ha [3]: 0%
Plant response rating, Barnyardgrass [4]: 90
pest or weed control at 125 g/ha [4]: 60%
Wheat plant response rating ([5]; 125 g ai/ha): 0
Wheat plant response rating ([5]; 500 g ai/ha): 0
pest or weed control at 250 g/ha [6]: 0%
Corn plant response rating (crop injury, 0 = no effect, 100 = complete kill) at 125 g/ha [7]: 0%
Corn plant response rating (crop injury, 0 = no effect, 100 = complete kill) at 500 g/ha [7]: 0%
pest or weed control at 125 g/ha [8]: 40%
pest or weed control at 500 g/ha [8]: 70%
Plant response rating ([9]; 1000 g ai/ha): 10
plant injury at 250 g/ha [10]: 10%
Plant response rating ([11]; 1000 g ai/ha): 65
pest or weed control at 125 g/ha [12]: 0%
pest or weed control at 500 g/ha [12]: 0%
pest or weed control at 125 g/ha [13]: 90%
pest or weed control at 500 g/ha [13]: 90%
pest or weed control at 250 g/ha [14]: 0%
melting point: 292 to 295 °C
pest or weed control at 250 g/ha [15]: 40%
Plant response rating ([16]; 1000 g ai/ha): 0
pest or weed control at 125 g/ha [17]: 0%
pest or weed control at 500 g/ha [17]: 0%

O=C1NCCC(c2ccc(C(F)(F)F)cc2)C1C(=O)Nc1cccc(F)c1F (stereo not shown) [Compound 11, N-(2,3-difluorophenyl)-2-oxo-4-[4-(trifluoromethyl)phenyl]-3-piperidinecarboxamide]
pest or weed control at 125 g/ha ([18]; 125 g ai/ha): 0%
pest or weed control at 500 g/ha ([18]; 500 g ai/ha): 30%
Plant response rating ([1]; 125 g ai/ha): 30
Plant response rating ([1]; 250 g ai/ha): 80
Plant response rating ([1]; 500 g ai/ha): 95
Plant response rating ([1]; 1000 g ai/ha): 100
pest or weed control at 125 g/ha [2]: 70%
pest or weed control at 500 g/ha [2]: 90%
plant injury at 125 g/ha [3]: 0%
plant injury at 500 g/ha [3]: 50%
Plant response rating, Barnyardgrass [4]: 90
pest or weed control at 125 g/ha [4]: 60%
pest or weed control at 125 g/ha ([19]; 125 g ai/ha): 40%
pest or weed control at 500 g/ha ([19]; 500 g ai/ha): 60%
Corn plant response rating (crop injury, 0 = no effect, 100 = complete kill) at 125 g/ha [7]: 0%
Corn plant response rating (crop injury, 0 = no effect, 100 = complete kill) at 500 g/ha [7]: 40%
pest or weed control at 125 g/ha [8]: 80%
pest or weed control at 500 g/ha [8]: 90%
pest or weed control at 125 g/ha ([20]; 125 g ai/ha): 0%
pest or weed control at 500 g/ha ([20]; 500 g ai/ha): 60%
Plant response rating ([9]; 125 g ai/ha): 0
Plant response rating ([9]; 250 g ai/ha): 0
Plant response rating ([9]; 500 g ai/ha): 0
Plant response rating ([9]; 1000 g ai/ha): 0
Plant response rating ([11]; 125 g ai/ha): 10
Plant response rating ([11]; 250 g ai/ha): 20
Plant response rating ([11]; 500 g ai/ha): 50
Plant response rating ([11]; 1000 g ai/ha): 70
pest or weed control at 125 g/ha ([21]; 125 g ai/ha): 20%
pest or weed control at 500 g/ha ([21]; 500 g ai/ha): 50%
pest or weed control at 125 g/ha [12]: 0%
pest or weed control at 500 g/ha [12]: 30%
pest or weed control at 125 g/ha [13]: 70%
pest or weed control at 500 g/ha [13]: 90%
pest or weed control at 125 g/ha ([22]; 125 g ai/ha): 40%
pest or weed control at 500 g/ha ([22]; 500 g ai/ha): 80%
pest or weed control at 125 g/ha ([23]; 125 g ai/ha): 0%
pest or weed control at 500 g/ha ([23]; 500 g ai/ha): 0%
pest or weed control at 125 g/ha ([24]; 125 g ai/ha): 0%
pest or weed control at 500 g/ha ([24]; 500 g ai/ha): 20%
melting point: 180 to 182 °C
pest or weed control at 125 g/ha ([25]; 125 g ai/ha): 20%
pest or weed control at 500 g/ha ([25]; 500 g ai/ha): 50%
Plant response rating ([16]; 125 g ai/ha): 0
Plant response rating ([16]; 250 g ai/ha): 0
Plant response rating ([16]; 500 g ai/ha): 0
Plant response rating ([16]; 1000 g ai/ha): 0
pest or weed control at 125 g/ha [17]: 0%
pest or weed control at 500 g/ha [17]: 40%
